Counter-ions that a name gives are not always drawn.

Series [1] has as its system beagle dogs. The experiment in a line: Repeated oral administration toxicity tests of TKS159 in beagle dogs (4, 13 and 52 weeks). The class given is in vivo. The protocol:
Separately, beagle dogs (female and male) were divided into 4 groups consisting of 6, 4, 4 and 6 dogs and, among them, to 3 groups were repeatedly administered orally TKS 159 at a dose of 2.5, 6.0 and 15.0 mg/kg, and to a control group was repeatedly administered orally an excipient, for 13 weeks, and observation of the general status and various tests were performed. Further, regarding a control group and a case of a part of a 15.0 mg/kg administration group, after a repeated administration period for 13 weeks, a recovery test of no administration of a drug was performed for 4 weeks, and then the same test was performed. […] Separately, beagle dogs (female and male) were divided into 4 groups containing 5, 3, 3 and 5 dogs and, among them, to 3 groups was repeatedly administered orally TKS159 at a dose of 0.25, 0.75 and 2.25 mg/kg, to a control group was repeatedly administered an excipient orally, for 52 weeks, and observation of the general status and various tests were performed. Further, regarding a control group and a case of a part of a 2.25 mg/kg administration group, after a repeated administration period for 52 weeks, a recovery test of no administration of a drug was performed for 4 weeks, and then the same test was performed.

The subject of the next series is Sprague-Dawley male rats. Put plainly: 28-day repeated oral administration to rats, necropsy and pathohistological test. The format is in vivo. The following applies: rat, oral 300, 1000 or 2000 mg/kg once a day for 28 days. The protocol: Five Sprague-Dawley male rats, 4 week age, weighing each 160.3 to 169.5 g, were reared for 8 days for quarantine and training were handled as one group, and they were grouped into four groups of a control group, a 300 mg/kg administration, a 1000 mg/kg administration, and a 2000 mg/kg administration. 4-Amino-5-chloro-2-methoxy-N-[(2S,4S)-2-hydroxymethyl-4-pyrrolidinyl] benzamide monohydrochloride obtained in Example 9 was ground with a mortar, the powder was added so that the compound was contained at 300 mg, 1000 mg or 2000 mg in 10 ml of a 0.5% aqueous methylcellulose solution (manufactured by Wako Pure Chemical Industries, Ltd.; prepared using Japanese Pharmacopoeia injectable water), and the solution was stirred to prepare an administration specimen. Administration specimens for 7 days were prepared at one time, once per week, stored in a refrigerator, and used. One-time dose was defined to be 10 ml/kg, and the specimen was forcibly administered orally at 9 o'clock to 12 o'clock for 28 days once a day using a rat stomach tube. Only a 0.5% aqueous methylcellulose solution was administered at 10 ml/kg to a control group.
During training and drug administration period, a solid feed (CE-2 manufactured by CLEA Japan Inc.) and tap water were freely given.

The target of another series is T1, dopamine D2 receptor (Rattus norvegicus, UniProt P61169).
T1 construct: centrifugation and suspension were repeated to prepare a dopamine D2 receptor sample; from tissue; host or cells: corpus striatum of Wistar male rat (membrane homogenate)
Put plainly: Binding affinity for dopamine D2 receptor ([3H]-spiperone displacement). The following applies: for IC50: Wistar rat corpus striatum receptor sample, 0.25 nM [3H]-spiperone. The protocol:
Corpus striatum extracted from a Wistar male rat was homogenized in a 50 mM Tris-HCl buffer (pH 7.7), and centrifugation and suspension were repeated to prepare a dopamine D2 receptor sample. The receptor sample was reacted with a solution containing a 0.25 nM radioactive ligand of [^3H]-spiperone and the specimen drug obtained in Example 9 at a prescribed concentration. Then, the solution was filtered by suction using a multifilter MF-12G (glass filter (provided with Whatman GF/C)), and radioactivity of the filter was measured using a scintillation counter (LS6500 Beckman), so that affinity of the specimen drug for a dopamine D2 receptor was measured. Separately, the same procedure was also performed regarding TKS159 hydrochloride, and the affinity was compared.

Another series concerns the target T2, serotonin receptor 4 (Cavia porcellus, UniProt O70528).
T2 construct: centrifugation and suspension were repeated to prepare a serotonin receptor 4 sample; from tissue; host or cells: corpus striatum of Hartley male guinea pig (membrane homogenate)
The experiment in a line: Binding affinity for serotonin receptor 4 ([3H]-GR113808 displacement). Set-up: species or system guinea pig. The following applies: for IC50: guinea pig corpus striatum receptor sample, 0.1 nM [3H]-GR113808. The protocol: Corpus striatum extracted from a Hartley male guinea pig was homogenized in a 50 mM HEPES-NaOH buffer (pH 7.4), and centrifugation and suspension were repeated to prepare a serotonin receptor 4 sample. The receptor sample was reacted with a solution containing a 0.1 nM radioactive ligand of [^3H]-GR113808 and the specimen drug obtained in Example 9 at a prescribed concentration. Then, the solution was filtered by suction using a multifilter MF-12G (glass filter (provided with Whatman GFIC)), and radioactivity of the filter was measured using a scintillation counter (LS6500 Beckman), so that affinity of the specimen drug for a serotonin receptor 4 was measured. Separately, the same procedure was also performed regarding TKS159 hydrochloride, and the affinity was compared.

The test system of series [2] is esophagus sample extracted from a rat. The experiment in a line: Relaxation reaction in rat-extracted esophagus muscularis mucosae sample contracted with carbachol. The following applies: for EC50: Wistar rat esophagus muscularis mucosae, 3x10^-6 M carbachol, 1 μM methysergide, ketanserin and granisetron present. The protocol: Regarding the drug obtained in Example 9, a degree of action of promoting the movement of the digestive tract was measured using an esophagus sample extracted from a rat.
An esophagus in a chest cavity was extracted from a Wistar male rat, and muscularis propria sample containing longitudinal muscle and circular muscle was removed to prepare a muscularis mucosae sample having a length of about 2 cm. The sample was immersed in a nutrient solution (containing NaCl 118.5, KCl 4.7, CaCl2 1.3, MgSO4 0.6, NaHCO3 25.0, KH2PO4 1.2, and glucose 11.1 (unit mM)), and constriction of the sample and stability of the constriction were confirmed at 32°C using 3x10 ^-6M carbachol while a 95% 02/5% Co2 mixed gas was flown, each 1 μM of methysergide, ketanserin and granisetron were added, the drug obtained in Example 9 was accumulatively applied at a common ratio of 3 after 30 minutes, and a degree of relaxation was isotonically (stationary tension; about 0.5 g) measured via a transducer. Separately, the same procedure was also performed regarding TKS159 hydrochloride, and an intensity of the action was compared.

In series [3] the test system is beagle dogs. Put plainly: 4-week repeated oral administration to beagle dogs, necropsy and pathohistological test. The format is in vivo. The conditions noted are these: beagle dog, oral 100 mg/kg once a day for 4 weeks. The protocol:
Using three beagle dogs as a test animal, 4-amino-5-chloro-2-methoxy-N-[(2S,4S)-2-hydroxymethyl-4-pyrrolidinyl]benzamide monohydrochloride obtained in Example 9 was repeatedly administered orally at a dose of 100 mg/kg once a day for 4 weeks. Thereafter, the animals were sacrificed by exsanguination from carotid artery under anesthesia, and the brain, aorta, heart, lung, and liver were extracted. These organs were examined with naked eyes, fixed with a 0.1% phosphate-buffered 10% formalin solution, and stored. Each organ was embedded in paraffin, and sliced to prepare a hematoxine orange-stained sample. Pathohistological test on the sections was performed using a light microscope.

For a further series, the system named is ddy male mouse. The experiment in a line: Acute toxicity in mouse, oral and intravenous administration. The format is in vivo. The protocol:
Using a ddy male mouse, the drug obtained in Example 9 and TKS159 were suspended in 0.5% methylcellulose for oral administration, and were dissolved in a physiological saline for intravenous administration. This was administered by a forced oral administration method and an intravenous administration method using a probe, and acute toxicity was observed.

Where [4] appears, read: beagle dogs, 13 weeks, 15.0 mg/kg group.
The mark [5] stands for this setting: beagle dogs, 52 weeks, 2.25 mg/kg group.
Setting [6] is: male beagle dogs, 4 weeks, 100 mg/kg group.

T2 sequence (O70528 whole entry): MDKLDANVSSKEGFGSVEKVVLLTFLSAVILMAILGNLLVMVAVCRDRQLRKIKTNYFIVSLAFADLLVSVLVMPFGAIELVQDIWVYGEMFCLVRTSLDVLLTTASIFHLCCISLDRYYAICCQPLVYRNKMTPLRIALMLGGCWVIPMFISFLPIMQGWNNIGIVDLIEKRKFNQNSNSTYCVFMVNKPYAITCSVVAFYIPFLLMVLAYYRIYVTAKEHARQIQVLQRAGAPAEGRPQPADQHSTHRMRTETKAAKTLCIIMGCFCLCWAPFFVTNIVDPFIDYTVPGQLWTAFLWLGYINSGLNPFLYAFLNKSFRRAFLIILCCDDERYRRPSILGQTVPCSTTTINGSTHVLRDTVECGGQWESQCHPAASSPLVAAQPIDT
T1 sequence (P61169 whole entry): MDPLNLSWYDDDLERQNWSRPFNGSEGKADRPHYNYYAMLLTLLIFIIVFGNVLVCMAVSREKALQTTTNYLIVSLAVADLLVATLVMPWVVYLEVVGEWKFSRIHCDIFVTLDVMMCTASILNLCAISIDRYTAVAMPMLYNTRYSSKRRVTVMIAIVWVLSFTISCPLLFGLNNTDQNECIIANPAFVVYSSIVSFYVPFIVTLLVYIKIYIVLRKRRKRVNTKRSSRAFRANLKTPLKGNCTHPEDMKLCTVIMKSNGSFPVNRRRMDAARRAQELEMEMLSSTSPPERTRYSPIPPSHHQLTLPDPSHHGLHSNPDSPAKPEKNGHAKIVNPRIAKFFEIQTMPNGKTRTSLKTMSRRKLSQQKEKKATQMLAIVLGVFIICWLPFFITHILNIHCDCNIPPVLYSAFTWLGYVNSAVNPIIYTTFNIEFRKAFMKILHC

`CCN1C[C@@H](NC(=O)c2cc(Cl)c(N)cc2OC)C[C@H]1CO` [TKS159, 4-Amino-5-chloro-2-methoxy-N-[(2S,4S)-1-ethyl-2-hydroxymethyl-4-pyrrolidinyl]benzamide]: in the series on beagle dogs [1] (setting [4]), the “findings in other one case” value is “necrosis of an artery septum and surrounding cell infiltration were recognized”; the “findings in two cases” value is reported as “arteritis was recognized”. Also, in the series on beagle dogs [1] (setting [5]), the arteritis findings entry was “arteritis was observed in thighbone marrow and mediastinal lymph node in one case among male 5 cases”; the malacia findings result is “malacia was seen in piriform lobe and hippocampus in other one case”. Besides, in the series with beagle dogs [1] (setting [6]), the “findings in death case” value was “thrombus formation was recognized in a lung artery and a heart coronary artery, and slight bleeding was recognized in a cavity surrounding a blood vessel in a cerebral parenchyma”; the “findings in survival case” value was “big thrombus formation was recognized in a left ventricle, and thrombus formation was recognized in a kidney arcuate artery and an interlobar artery”.

As for `COc1cc(N)c(Cl)cc1C(=O)N[C@@H]1CN[C@H](CO)C1.Cl` [Example 9, 4-amino-5-chloro-2-methoxy-N-[(2S,4S)-2-hydroxymethyl-4-pyrrolidinyl]benzamide monohydrochloride], the “organs observed with naked eyes” value with Sprague-Dawley male rats is on record as “Abnormality was not seen with naked eyes in any organ”. The pathohistological test entry with Sprague-Dawley male rats is “encephalomalacia, arteritis and thrombus formation were not recognized”; in the series with beagle dogs [3], “encephalomalacia, arteritis and thrombus formation were not recognized”. The “affinity for a dopamine D2 receptor as compared with TKS159 hydrochloride” value on dopamine D2 receptor (FIG. 2) is “weaker”. Further, the results for the IC50 on dopamine D2 receptor and at serotonin receptor 4 were 34000 nM and 250 nM, respectively. Also, the “affinity for a serotonin receptor 4 as compared with TK5159 hydrochloride” value at serotonin receptor 4 (FIG. 1) is given as “stronger”. The “relaxing action as compared with TKS159 hydrochloride” value in series [2] (FIG. 3) was “stronger”. Further, in series [2], it took 700 nM to reach a half-maximal effect (EC50). For the same compound, the “organs examined with naked eyes” value with beagle dogs [3] (brain, aorta, heart, lung, liver) is on record as “Abnormality was not seen in any organ”.

Regarding `CCN1CC(NC(=O)c2cc(Cl)c(N)cc2OC)CC1CO` (stereo not drawn) [TKS159 hydrochloride], the results for the IC50 at dopamine D2 receptor and on serotonin receptor 4 were 3800 nM and 450 nM, respectively. In addition, the Survival result in the series on ddy male mouse (intravenous administration, 132 mg/kg) is on record as “No survival among 6”; in the series with ddy male mouse (oral administration, 1080 mg/kg), “No survival among 2”. Further, in series [2], the EC50 (in general, the midpoint of the concentration-response curve) was found to be 1100 nM.

The record behind these values is patent US7485665B2, “Medicinal composition” (Nagase Chemtex Corporation, priority 2002, dated 2009).
